The values below are quoted from earlier work in patent publication US20110052581A1 (Poniard Pharmaceuticals Inc., priority 2008, published 2011).

The subject of this data set is patients with advanced colorectal cancer. Particulars: single agent therapy.

Turning to `CCc1c2c(nc3ccc(OC(=O)N4CCC(N5CCCCC5)CC4)cc13)-c1cc3c(c(=O)n1C2)COC(=O)[C@]3(O)CC` [irinotecan], the median survival was roughly 12 months, the “progression-free survival (median)” value is recorded as 4.3 months and the response rate is 18%.

Consider `O=C1[O][Pt]2([NH][C@@H]3CCCC[C@H]3[NH]2)[O]C1=O` [oxaliplatin], for which the “progression-free survival (median)” value is listed as 4.0 months and the response rate was 12%.
